Read-outs that look alike come from different tables or passages of the source.

Assay [1] addresses T1, pneumolysin (Ply) (Streptococcus pneumoniae serotype 2, UniProt Q04IN8).
T1 construct: made in house; host or cells: E. coli BL21(DE3)
Briefly: cell-based. The assay is classed as cell-based. As for the experimental part:
Native human erythrocytes were taken into EDTA tubes. The erythrocytes were washed three times with PBS (0.15 M NaCl, 2.7 mM KCl, 8.1 mM Na2HPO4 and 1.5 mM KH2PO4) by centrifugation at 700× g for 10 min. The purified erythrocytes were stored at +4 °C. Erythrocytes (1% v/v) in PBS were mixed with 1 nM Ply and dilution series of polyphenol inhibitors in 96-well microtiter plates. The reaction was incubated for 30 min at 37 °C. The plates were centrifuged, and the supernatant was pipetted into flat-bottomed microtiter plates to measure the absorbance at 570 nm (VICTOR X4, PerkinElmer, Turku, Finland) of the released hemoglobin from lysed erythrocytes. The absorbances of triplicate measurements are presented as a function of inhibitor concentration. The IC50 values were calculated with Origin data analysis software (2016, OriginLab Corporation, Northampton, MA, USA).

For assay [2], the target named is T1, pneumolysin (Ply). Briefly: Precipitation assay of pneumolysin-tannin interaction. The assay is classed as binding. Particulars: for Minimum Precipitating Concentration: 10 μM Ply, Na-acetate buffer pH 5.0, 25 °C, 30 min, absorbance 414 nm; for Precipitation Relative Power: fold compared to vescalagin (=1); for Fold higher precipitating concentration compared to hemolysis IC50: minimum precipitating concentration vs hemolysis IC50. As for the experimental part: The precipitation assay with tannins was done as described previously with bovine serum albumin [22]. First, 10 μM of Ply and dilution series of polyphenols (5–1000 µM) were incubated in a Na-acetate buffer (200 mM NaCl and 50 mM CH3COONa; pH 5.0) at 25 °C for 30 min with shaking. The reactions were carried out in Multiskan Ascent plate reader (Labsystems, Vantaa, Finland) and the precipitation was measured at 414 nm. The minimum concentration precipitating Ply was calculated with Origin data analysis software (2016, OriginLab Corporation, Northampton, MA, USA).

The mark [3] stands for this setting: IC50 (screening with hemolysis assays), estimated from the inhibition curves, two-fold dilutions of tannins.
The mark [4] stands for this setting: Hemolysis Inhibition IC50, 1 nM Ply, 1% human erythrocytes, 30 min 37 °C, logistic fit.
[5] abbreviates: classification by IC50 from two-fold dilutions.
Setting [6] is: read-out: IC50 (screening with hemolysis assays), estimated from the inhibition curves, two-fold dilutions of tannins.

T1 sequence (Q04IN8 whole entry): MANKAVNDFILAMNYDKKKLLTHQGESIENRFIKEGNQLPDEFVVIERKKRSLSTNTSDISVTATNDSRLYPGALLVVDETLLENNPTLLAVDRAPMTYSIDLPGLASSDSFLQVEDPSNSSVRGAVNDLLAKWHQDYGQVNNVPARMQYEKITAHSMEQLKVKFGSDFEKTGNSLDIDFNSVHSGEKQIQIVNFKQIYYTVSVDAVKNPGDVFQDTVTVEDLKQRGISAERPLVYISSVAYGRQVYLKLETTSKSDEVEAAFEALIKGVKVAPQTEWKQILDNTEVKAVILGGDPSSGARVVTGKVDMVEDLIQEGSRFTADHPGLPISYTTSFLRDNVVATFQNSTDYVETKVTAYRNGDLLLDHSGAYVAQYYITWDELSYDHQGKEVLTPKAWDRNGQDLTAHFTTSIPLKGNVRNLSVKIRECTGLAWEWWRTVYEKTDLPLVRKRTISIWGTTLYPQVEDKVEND

As to `O=C1OC[C@H]2OC(O)[C@@H]3OC(=O)c4cc(O)c(O)c(O)c4-c4c(cc(O)c(O)c4O)C(=O)O[C@H]3[C@@H]2OC(=O)c2cc(O)c(O)c(O)c2-c2c1cc(O)c(O)c2O` (stereo partly shown) [Pedunculagin], the 50% inhibitory concentration (IC50) on pneumolysin (Ply) [1] (setting [3]) was > 100 nM.
Same read-out and setting: then `O=C(O[C@@H]1O[C@@H]2COC(=O)c3cc(O)c(O)c(O)c3-c3c(cc(O)c(O)c3O)C(=O)O[C@H]2[C@H](O)[C@H]1OC(=O)c1cc(O)c(O)c(O)c1)c1cc(O)c(O)c(O)c1` [1,2,-di-O-galloyl-4,6-HHDP-β-D-glucose], with 70 nM.
Still for that read-out and setting: under `O=C(O[C@@H]1O[C@@H]2COC(=O)c3cc(O)c(O)c(O)c3-c3c(cc(O)c(O)c3O)C(=O)O[C@H]2[C@@H]2OC(=O)c3cc(O)c(O)c(O)c3-c3c(cc(O)c(O)c3O)C(=O)O[C@@H]12)c1cc(O)c(O)c(O)c1` [Casuarictin] stands 40 nM.
Still for that read-out and setting: under `O=C(O[C@H]1[C@@H]2OC(=O)c3cc(O)c(O)c(O)c3-c3c(cc(O)c(O)c3O)C(=O)OC[C@H]2OC(O)[C@@H]1OC(=O)c1cc(O)c(O)c(O)c1)c1cc(O)c(O)c(O)c1` (stereo partly shown) [Tellimagrandin I] stands 60 nM; under `O=C1O[C@H]2[C@@H]3OC(=O)c4cc(O)c(O)c(O)c4-c4c(cc(O)c(O)c4O)C(=O)OC[C@H]2O[C@@H](OC(=O)c2cc(O)c(O)c(O)c2)[C@@H]3OC(=O)c2cc(O)c(O)c3c2[C@@H]2C1=CC(=O)[C@](O)(O3)C2(O)O` [Geraniin], 100 nM.
With `O=C(OC1COC(=O)c2cc(O)c(O)c(O)c2-c2c(cc(O)c(O)c2O)C(=O)OC1C1OC(=O)c2cc(O)c(O)c(O)c2-c2c(O)c(O)c(O)c3c2C(=O)OC1C3O)c1cc(O)c(O)c(O)c1` (stereo not shown) [Stachyurin], on pneumolysin (Ply) [1] (setting [3]), the half-inhibitory concentration (IC50) is > 100 nM.
In the case of `O=C(O[C@@H]1O[C@@H]2COC(=O)c3cc(O)c(O)c(O)c3-c3c(cc(O)c(O)c3O)C(=O)O[C@H]2[C@H](OC(=O)c2cc(O)c(O)c(O)c2)[C@H]1OC(=O)c1cc(O)c(O)c(O)c1)c1cc(O)c(O)c(Oc2c(C(=O)O[C@H]3O[C@@H]4COC(=O)c5cc(O)c(O)c(O)c5-c5c(cc(O)c(O)c5O)C(=O)O[C@H]4[C@@H]4OC(=O)c5cc(O)c(O)c(O)c5-c5c(cc(O)c(O)c5O)C(=O)O[C@@H]34)cc(O)c(O)c2O)c1` [Gemin A], on pneumolysin (Ply) [2], the “Minimum Precipitating Concentration” value was 6.2 µM, the “Precipitation Relative Power” value came to 130 and the “Fold higher precipitating concentration compared to hemolysis IC50” value (from here on “Fold higher precipitating concentration”) stood at 150 fold. For the same molecule, the “Hemolysis Inhibition Inhibitory Power” value at pneumolysin (Ply) [1] is on record as 5.9. Inhibition at pneumolysin (Ply) [1] (setting [4]) was half-maximal at 41 ± 1 nM (IC50). Further, on pneumolysin (Ply) [1] (setting [3]), the IC50 was 20 nM. In addition, the “Inhibitor class in hemolysis inhibition assay” value (from here on “Inhibitor class”) on pneumolysin (Ply) [1] (setting [5]) is “potent (potent inhibitors (IC50 10–30 nM))”.
In the case of `O=C(O)C[C@@H]1C(=O)O[C@H]2[C@@H]3OC(=O)c4cc(O)c(O)c(O)c4-c4c(cc(O)c(O)c4O)C(=O)OC[C@H]2O[C@@H](OC(=O)c2cc(O)c(O)c(O)c2)[C@@H]3OC(=O)c2cc(O)c(O)c3c2[C@H]1[C@H](O)C(=O)O3` [Chebulagic acid], on pneumolysin (Ply) [1] (setting [3]), the IC50 is > 100 nM.
For `O=C(O[C@@H]1COC(=O)c2cc(O)c(O)c(O)c2-c2c(cc(O)c(O)c2O)C(=O)O[C@H]1[C@@H]1OC(=O)c2cc(O)c(O)c(O)c2-c2c(O)c(O)c(O)c3c2C(=O)O[C@H]1[C@@H]3O)c1cc(O)c(O)c(O)c1` [Casuarinin], the IC50 at pneumolysin (Ply) [1] (setting [3]) was 90 nM.
Same read-out and setting: under `O=C1O[C@H]2[C@@H]3OC(=O)c4cc(O)c(O)c(O)c4-c4c(O)c(O)c5oc(=O)c6c(c(O)c(O)c7oc(=O)c4c5c76)-c4c(cc(O)c(O)c4O)C(=O)OC[C@H]3OC(O)[C@@H]2OC(=O)c2cc(O)c(O)c(O)c2-c2c1cc(O)c(O)c2O` (mixture of isomers) [Punicalagin] stands 60 nM.
`O=C1OCC2OC(=O)c3cc(O)c(O)c(O)c3-c3c(O)c(O)c(O)c4c3C(=O)OC(C2OC(=O)c2cc(O)c(O)c(O)c2-c2c1cc(O)c(O)c2O)C1OC(=O)c2c-4c(O)c(O)c(O)c2C1O` (stereo not shown) [Vescalagin]: at pneumolysin (Ply) [2], the “Minimum Precipitating Concentration” value is listed as 820 µM, the “Precipitation Relative Power” value is reported as 1 and the “Fold higher precipitating concentration” value came to 3400 fold. Further, the IC50 against pneumolysin (Ply) [1] (setting [4]) came to 240 ± 5.3 nM. Besides, the concentration for half-maximal inhibition (IC50) at pneumolysin (Ply) [1] (setting [3]) was > 100 nM. Moreover, on pneumolysin (Ply) [1] (setting [5]), the “Inhibitor class” value is “weak (negative or weak inhibitors (IC50 ≥ 100 nM))”. Further, the “Hemolysis Inhibition Inhibitory Power” value on pneumolysin (Ply) [1] (relative to IC50 of vescalagin (=1)) is recorded as 1.
Consider `O=C(OC1O[C@@H]2COC(=O)c3cc(O)c(O)c(O)c3-c3c(cc(O)c(O)c3O)C(=O)O[C@H]2[C@H](OC(=O)c2cc(O)c(O)c(O)c2)[C@H]1OC(=O)c1cc(O)c(O)c(O)c1)c1cc(O)c(O)c(O)c1` (stereo partly shown) [Tellimagrandin II], for which, on pneumolysin (Ply) [1], the “Inhibitor class” value is “potent (key: negative or weak inhibitors (IC50 ≥ 100 nM); moderate inhibitors (IC50 40–90 nM); potent inhibitors (IC50 10–30 nM))”. Further, the IC50 at pneumolysin (Ply) [1] (setting [3]) is 10 nM.
With `O=C(O[C@H]1[C@@H]2OC(=O)c3cc(O)c(O)c(O)c3-c3c4cc(c(O)c3O)Oc3c(cc(O)c(O)c3O)C(=O)O[C@H]3C(O)O[C@@H]5COC(=O)c6cc(O)c(O)c(O)c6-c6c(cc(c(O)c6O)Oc6c(cc(O)c(O)c6O)C(=O)O[C@H]1C(O)O[C@@H]2COC4=O)C(=O)O[C@H]5[C@@H]3OC(=O)c1cc(O)c(O)c(O)c1)c1cc(O)c(O)c(O)c1` (stereo partly shown) [Oenothein B], at pneumolysin (Ply) [2], the “Minimum Precipitating Concentration” value was 510 µM, the “Precipitation Relative Power” value came to 1.6 and the “Fold higher precipitating concentration” value was found to be 9300 fold. In addition, the “Hemolysis Inhibition Inhibitory Power” value on pneumolysin (Ply) [1] is recorded as 4.4. Half-maximal inhibition against pneumolysin (Ply) [1] (setting [4]) (IC50) was put at 55 ± 2.1 nM. For the same molecule, the 50% inhibitory concentration (IC50) on pneumolysin (Ply) [1] (setting [3]) was 60 nM. Moreover, the “Inhibitor class” value on pneumolysin (Ply) [1] (setting [5]) is given as “moderate (moderate inhibitors (IC50 40–90 nM))”.
For `O=C(O[C@@H]1O[C@H](CO)[C@@H](O)[C@H](O)[C@H]1O)c1cc(O)c(O)c(O)c1` [1-O-galloyl-β-D-glucose], the IC50 at pneumolysin (Ply) [1] (setting [3]) is > 100 nM.
As for `O=C(OC1OC2COC(=O)c3cc(O)c(O)c(O)c3-c3c(cc(O)c(O)c3O)C(=O)OC2C2OC(=O)c3cc(O)c(O)c(O)c3-c3c(cc(O)c(O)c3O)C(=O)OC12)c1cc(O)c(O)c(Oc2c(O)c(O)c(O)c3c2C(=O)OC2C(COC(=O)c4cc(O)c(O)c(O)c4-3)OC(OC(=O)c3cc(O)c(O)c(O)c3)C3OC(=O)c4cc(O)c(O)c(O)c4-c4c(cc(O)c(O)c4O)C(=O)OC23)c1` (stereo not shown) [Sanguiin H-6], the IC50 at pneumolysin (Ply) [1] (setting [6]) is 20 nM.
Turning to `O=C(OC1OC2COC(=O)c3cc(O)c(O)c(O)c3-c3c(cc(O)c(O)c3O)C(=O)OC2C2OC(=O)c3cc(O)c(O)c(O)c3-c3c(cc(O)c(O)c3O)C(=O)OC12)c1cc(O)c(O)c(Oc2c(C(=O)OC3OC4COC(=O)c5cc(O)c(O)c(O)c5-c5c(cc(O)c(O)c5O)C(=O)OC4C4OC(=O)c5cc(O)c(O)c(O)c5-c5c(cc(O)c(O)c5O)C(=O)OC34)cc(O)c(O)c2O)c1` (stereo not shown) [Agrimoniin], the IC50 at pneumolysin (Ply) [1] (setting [6]) was 30 nM.
As to `O=C(OC1OC2COC(=O)c3cc(O)c(O)c(O)c3-c3c(cc(O)c(O)c3O)C(=O)OC2C2OC(=O)c3cc(O)c(O)c(O)c3-c3c(cc(O)c(O)c3O)C(=O)OC12)c1cc(O)c(O)c(Oc2c(O)c(O)c(O)c3c2C(=O)OC2C(COC(=O)c4cc(O)c(O)c(O)c4-3)OC(OC(=O)c3cc(O)c(O)c(Oc4c(O)c(O)c(O)c5c4C(=O)OC4C(COC(=O)c6cc(O)c(O)c(O)c6-5)OC(OC(=O)c5cc(O)c(O)c(O)c5)C5OC(=O)c6cc(O)c(O)c(O)c6-c6c(cc(O)c(O)c6O)C(=O)OC45)c3)C3OC(=O)c4cc(O)c(O)c(O)c4-c4c(cc(O)c(O)c4O)C(=O)OC23)c1` (stereo not shown) [Lambertianin C], the IC50 at pneumolysin (Ply) [1] (setting [6]) was 20 nM.
In the case of `O=C1OC[C@H]2OC(=O)c3cc(O)c(O)c(O)c3-c3c(O)c(O)c(O)c4c3C(=O)O[C@H]([C@H]3OC(=O)c5c-4c(O)c(O)c(O)c5[C@H]3O)[C@@H]2OC(=O)c2cc(O)c(O)c(O)c2-c2c1cc(O)c(O)c2O` [Castalagin], the IC50 at pneumolysin (Ply) [1] (setting [3]) is 80 nM.

As a reminder, the IC50 is the point on the concentration scale where inhibition reaches its midpoint.

Source of the values: article PMC7766327, “Inhibition of Pneumolysin Cytotoxicity by Hydrolysable Tannins” (Antibiotics, 2020).
